Source: paper PMC10285648, “iTAG an optimized IMiD-induced degron for targeted protein degradation in human and murine cells” (iScience, 2023)
pIC50: −log10 of the molar value.

Experiments:
cMYC-EGFP-DCD2 = assay: Flow cytometry of EGFP signal, cMYC-EGFP-DCD2 in HMEC; format: cell-based, human; conditions: 10uM, 4h
Text: To systematically delineate the optimal DCD/degrader combination for targeted protein degradation, we undertook a matrix approach evaluating all 23 DCD tags against 6 small molecule degraders. First, we fused the DCD tags with Enhanced Green Fluorescent Protein (EGFP) and a target protein of interest, focusing initially on the proto-oncogene cMYC (Figure 1A). cMYC function has been extensively studied and downstream perturbations of cMYC loss are well characterised,[29]^,[30]^,[31] providing a good reference to test the iTAG system. […]
Figure 1 Design and experimental evaluation of the DCD tags (A) Representation of the experimental pipeline used to evaluate the different DCD constructs. […] Median EGFP intensity was measured in each condition using flow cytometry (3 independent experiments, normalized to the control and represented as mean ± SD). […] Target loss was evaluated either by measuring EGFP median intensity using flow cytometry or western blotting for cMYC protein (3 independent experiments, normalized to the control and represented as mean ± SD). […] Target loss was evaluated as in (D) (3 independent experiments, normalized to the control and represented as mean ± SD). […]

cMYC-EGFP-DCD19 = assay: Flow cytometry of EGFP signal, cMYC-EGFP-DCD19 in HMEC; format: cell-based, human; conditions: 10uM, 4h
Text: (§1) To systematically delineate the optimal DCD/degrader combination for targeted protein degradation, we undertook a matrix approach evaluating all 23 DCD tags against 6 small molecule degraders. […] To control for any potential off-target effects of the IMiD/CeLMOD agents that could indirectly affect the target of interest, we designed controls in which the specific DCD and the EGFP sequences were interspaced by a P2A ribosomal “skipping” sequence,[32] leading to separate translation of the DCD and the target protein (Figure 1A). These constructs were then inserted into a doxycycline-inducible lentiviral vector system and stably expressed in hTERT immortalized human mammary epithelial cells (HMEC), a suitable model to assess the functional consequences of cMYC degradation. cMYC was tagged at the C-terminus end for the initial screening experiments.
(§2) Figure 1 Design and experimental evaluation of the DCD tags (A) Representation of the experimental pipeline used to evaluate the different DCD constructs. […] Median EGFP intensity was measured in each condition using flow cytometry (3 independent experiments, normalized to the control and represented as mean ± SD). […] The protein lysates were probed for cMYC levels using western blotting. […] Target loss was evaluated either by measuring EGFP median intensity using flow cytometry or western blotting for cMYC protein (3 independent experiments, normalized to the control and represented as mean ± SD). […] Target loss was evaluated as in (D) (3 independent experiments, normalized to the control and represented as mean ± SD). […] Protein lysates were collected and probed for cMYC and p21 using western blotting. […] Protein lysates were collected and probed for cMYC and p21 using western blotting. […] These were left out as controls with no test substance.
(§3) Following degrader treatment cells were collected and DAPI was added to the cell suspension at 1 μg/mL to allow the exclusion of dead cells. EGFP signal was measured using BD LSR II flow cytometer (BD Biosciences). FlowJo 10 Software (FlowJo) was used for data processing.

cMYC-EGFP-DCD23 = assay: Degradation of cMYC-EGFP-DCD23 in HMEC (flow cytometry, western blotting); format: cell-based, human; conditions: EGFP cellular degradation data for the DCD23, related to Figure 1 (10uM, 4h)
Text: as §1, §2, §3
Cells were lysed with SDS lysis buffer (2% SDS, 10% Glycerol, 50mM Tris pH 6.8) and boiled at 95°C for 30min. Protein concentration was measured using Pierce BCA Protein Assay Kit (ThermoFischer) following manufacturer’s recommendations. Samples were ran in NuPAGETM 10% Bis-Tris Midi electrophoresis gels (Invitrogen) using NuPAGETM MES SDS running buffer (ThermoFischer Scientific).
For western blotting membranes were blocked in a solution of 5% (w/v) bovine serum albumin (BSA; Sigma-Aldrich) dissolved in TBS-0.1% Tween 20 (Sigma-Aldrich) then incubated at 4°C overnight with the primary antibodies diluted in 5% (w/v) BSA/TBS-T. The membranes where then washed and incubated with anti-mouse and/or anti-rabbit secondary antibodies (LI-COR Biosciences) for 2h at RT diluted in 5% (w/v) BSA/TBS-T then washed and imaged using the LI-COR Odyssey (LI-COR Biosciences). Images were analyzed using Image Studio Lite software (LI-COR Biosciences).

[1] = test system: HMEC, HEK293T, MDA-MB-231, Kelly cells; assay: Cell viability assay (CellTiter-Blue); format: cell-based, human; conditions: 5 days treatment
Procedure: By endpoint, CellTiter-Blue reagent (Promega) was added to each well, incubated for 3 h at 37°C and absorbance was measured with a plate reader at 570nm. Average background absorbance value was subtracted from all readings when plotting the viability curve.

CRBN/DDB1 complex = target: T1, CRBN/DDB1 complex (Homo sapiens, UniProt Q96SW2); assay: IMiD-based fluorescence polarisation assay; format: binding; conditions: displacement of Sulfo-Cy5 IMiD probe (5 nM), 80 nM CRBN/DDB1; read-out: FP IC50
T1 construct: WT full length CRBN/DDB1 complex was added; made in house; host or cells: Sf9 insect cells (baculovirus)
T1 sequence (Q96SW2 whole entry): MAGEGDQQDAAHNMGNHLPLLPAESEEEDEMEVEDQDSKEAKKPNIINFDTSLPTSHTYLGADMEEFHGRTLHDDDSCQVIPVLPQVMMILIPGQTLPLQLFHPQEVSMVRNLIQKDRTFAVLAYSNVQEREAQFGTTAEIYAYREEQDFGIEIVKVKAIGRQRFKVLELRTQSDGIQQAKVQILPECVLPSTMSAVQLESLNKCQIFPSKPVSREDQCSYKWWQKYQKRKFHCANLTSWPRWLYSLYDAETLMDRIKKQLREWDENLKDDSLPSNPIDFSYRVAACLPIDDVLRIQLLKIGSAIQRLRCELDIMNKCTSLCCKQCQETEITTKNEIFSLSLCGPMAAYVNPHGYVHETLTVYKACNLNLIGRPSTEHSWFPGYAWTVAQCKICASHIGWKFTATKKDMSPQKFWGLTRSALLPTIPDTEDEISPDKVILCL
T1 sequence (Q16531 whole entry partner): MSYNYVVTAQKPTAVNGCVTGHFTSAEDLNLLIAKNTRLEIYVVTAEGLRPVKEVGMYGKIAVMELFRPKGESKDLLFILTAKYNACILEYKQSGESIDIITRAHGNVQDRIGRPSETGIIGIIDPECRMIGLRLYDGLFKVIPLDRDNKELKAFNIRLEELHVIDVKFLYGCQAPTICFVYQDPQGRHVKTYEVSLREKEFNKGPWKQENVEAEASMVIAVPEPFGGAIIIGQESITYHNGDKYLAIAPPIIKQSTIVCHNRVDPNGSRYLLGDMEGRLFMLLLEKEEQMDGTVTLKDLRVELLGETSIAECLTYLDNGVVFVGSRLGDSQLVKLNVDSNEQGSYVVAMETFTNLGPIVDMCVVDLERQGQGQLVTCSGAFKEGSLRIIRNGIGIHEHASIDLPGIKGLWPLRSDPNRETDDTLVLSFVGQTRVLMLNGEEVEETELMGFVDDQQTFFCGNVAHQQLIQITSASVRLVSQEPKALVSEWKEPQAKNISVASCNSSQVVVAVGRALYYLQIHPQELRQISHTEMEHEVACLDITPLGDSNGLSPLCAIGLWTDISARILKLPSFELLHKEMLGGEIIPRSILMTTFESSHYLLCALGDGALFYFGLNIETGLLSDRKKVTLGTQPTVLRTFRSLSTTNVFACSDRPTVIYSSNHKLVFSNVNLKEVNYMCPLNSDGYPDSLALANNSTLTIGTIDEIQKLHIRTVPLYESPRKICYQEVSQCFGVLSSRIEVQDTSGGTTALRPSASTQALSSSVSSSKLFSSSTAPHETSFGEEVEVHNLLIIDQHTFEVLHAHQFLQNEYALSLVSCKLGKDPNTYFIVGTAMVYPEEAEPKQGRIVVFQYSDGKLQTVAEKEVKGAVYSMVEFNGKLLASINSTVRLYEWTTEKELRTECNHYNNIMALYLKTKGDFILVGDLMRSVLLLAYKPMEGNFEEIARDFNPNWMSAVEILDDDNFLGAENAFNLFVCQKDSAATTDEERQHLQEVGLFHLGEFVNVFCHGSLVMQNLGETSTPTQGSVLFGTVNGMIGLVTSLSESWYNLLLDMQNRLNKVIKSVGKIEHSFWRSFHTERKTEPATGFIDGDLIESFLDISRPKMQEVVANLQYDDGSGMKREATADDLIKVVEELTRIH
Procedure: First, we wanted to confirm that the IMiD/CELMoDs used in our study were effectively binding to CRBN and to estimate their binding affinities. […] WT full length CRBN/DDB1 complex was added with a Tempest liquid handler (Formulatrix, USA) to all wells to a final concentration of 80 nM, except for low controls where WT CRBN was substituted with mutant [MUT]-[MUT] CRBN (mutant unable to bind the probe). The Echo was also used to add 5 nM final concentration of Sulfo-Cy5 fluorescent IMiD-based probe (Figure S6A) to each well. Plates were sealed, centrifuged at 200 g for 1 min and stored overnight at 4°C. Fluorescence Polarization and total fluorescence were read using a PHERAstar FSX plate reader (BMG Labtech, Germany).

For `Cc1ccc(NC(=O)NCc2ccc3c(c2)CN(C2CCC(=O)NC2=O)C3=O)cc1Cl` (centres unmarked) [CC885], the “change of EGFP signal” value (cMYC-EGFP-DCD2) was “strong decrease in EGFP signal”, the “loss of cMYC-EGFP signal” value (cMYC-EGFP-DCD19) was “robust loss of cMYC-EGFP signal” and the “Degradation as Log2 FC relative to DMSO” value (cMYC-EGFP-DCD23) was -1.27 Log2 FC. The cellular toxicity [1] was “significant cellular toxicity” and the pIC50 (CRBN/DDB1 complex) was 6.97.
